Experimental data reported in patent publication US20200129535A1, “DESMOCOLLIN 1 INHIBITORS FOR THE PREVENTION OR TREATMENT OF ATHEROSCLEROSIS” (priority 2017, published 2020).
Like-named read-outs stand apart in the source and are kept apart here.

System: Primary human skin fibroblasts
Assay: apoA-I-mediated cholesterol efflux study (promotion of HDL biogenesis) with compounds
Assay type: cell-based
Conditions: for EC50: Homo sapiens, Skin fibroblast, [3H]-cholesterol-labelled, cholesterol-loaded fibroblasts, 5 μg/ml apoA-I for 24 h, compound added during equilibration and apoA-I treatment
Description: FIGS. 17(A) to 17(C) show rutin (A), acarbose (B) and docetaxel (C) can promote apoA-I-mediated cholesterol efflux. Primary human skin fibroblasts were labelled with 0.2 μCi/ml of [^3H]-cholesterol during growth, loaded with 30 μg/ml of unlabeled cholesterol for 24 h, equilibrated for 24 h, and treated with 5 μg/ml of apoA-I for 24 h to determine efflux of cellular cholesterol by apoA-I. The indicated concentrations of rutin, acarbose and docetaxel were added during the equilibration and apoA-I treatment period. Results are expressed as percentage of total (cell plus medium) [^3H]-sterol appearing in the medium. Values are the mean+SD of quadruplicate determinations. One-way analysis of variance with Dunnett's post-hoc correction was performed to calculate multiplicity-adjusted P values. *P<0.05; **P<0.001; ***P<0.0001 compared with the group treated with apoA-I alone.
To investigate the biological activity of the 51 compounds identified in Example 3 in modulating HDL biogenesis, we performed an apoA-I-mediated cholesterol efflux study as described previously (see Choi, H. Y. et al., J Biol Chem 278, 32569-32577 (2003)).

**Q.** Which results are given for `CC(=O)O[C@@]12CO[C@@H]1C[C@H](O)[C@@]1(C)C(=O)[C@H](O)C3=C(C)[C@@H](OC(=O)[C@H](O)[C@@H](NC(=O)OC(C)(C)C)c4ccccc4)C[C@@](O)([C@@H](OC(=O)c4ccccc4)[C@H]21)C3(C)C` [No. 17, Docetaxel]?
**A.** effect on apoA-I-mediated cholesterol efflux (FIG. 17, compared with the group treated with apoA-I alone): promote; EC50 (read-out: half-maximal effective concentration (EC50), promotion of apoA-I-mediated HDL biogenesis): 0.00072 µM; potency rank in promoting HDL biogenesis among the 3 most active compounds (dose-response curves, FIG. 17): most potent

**Q.** `C[C@H]1O[C@H](O[C@H]2[C@H](O)[C@@H](O)[C@@H](O[C@H]3[C@H](O)[C@@H](O)C(O)O[C@@H]3CO)O[C@@H]2CO)[C@H](O)[C@@H](O)[C@@H]1N[C@H]1C=C(CO)[C@@H](O)[C@H](O)[C@H]1O` (stereo partly shown) [No. 2, Acarbose] was tested. Which EC50 (read-out: EC50 value, promotion of apoA-I-mediated HDL biogenesis) did it give?
**A.** 6.59 µM
